In patent publication US11780823B2, “Indazole-3-carboxamides and their use as Wnt/β-catenin signaling pathway inhibitors” (BioSplice Therapeutics, Inc., priority 2011, dated 2023):
pIC50: −log10 of the molar value.

tested on: Wnt activity (wnt-responsive SP5 promoter luciferase reporter in SW480 cells); assay: Wnt reporter screening assay: SP5 promoter-driven firefly luciferase in SW480 cells; format: cell-based; settings: Homo sapiens; SW480 colon cancer cells with SP5 promoter luciferase reporter; half-log dilutions, ten micromolar top concentration; read 24-40 h after compound addition; normalized to DMSO; read-out: Wnt inhibition
Text: Another screening assay for Wnt activity is described as follows. Reporter cell lines can be generated by stably transducing cells of cancer cell lines (e.g., colon cancer) with a lentiviral construct that include a wnt-responsive promoter driving expression of the firefly luciferase gene.
Lentiviral constructs can be made in which the SP5 promoter, a promoter having eight TCF/LEF binding sites derived from the SP5 promoter, is linked upstream of the firefly luciferase gene. The lentiviral constructs can also include a hygromycin resistance gene as a selectable marker. The SP5 promoter construct can be used to transduce SW480 cells, a colon cancer cell line having a mutated APC gene that generates a truncated APC protein, leading to de-regulated accumulation of β-catenin.
Cultured SW480 cells bearing a reporter construct can be distributed at approximately 10,000 cells per well into 96 well or 384 well plates. Compounds from a small molecule compound library can then be added to the wells in half-log dilutions using a ten micromolar top concentration. A series of control wells for each cell type receive only buffer and compound solvent. Twenty-four to forty hours after the addition of compound, reporter activity for luciferase can be assayed, for example, by addition of the BrightGlo luminescence reagent (Promega) and the Victor3 plate reader (Perkin Elmer). Readings can be normalized to DMSO only treated cells, and normalized activities can then be used in the IC50 calculations.

SMILES | pIC50
N#Cc1ccc(NC(=O)c2n[nH]c3ccc(-c4cncc(CN5CCCC5)c4)cc23)cn1 [Compound 52, N-(6-Cyanopyridin-3-yl)-5-(5-(pyrrolidin-1-ylmethyl)pyridin-3-yl)-1H-indazole-3-carboxamide] | 7.24
O=C(Nc1ccc(N2CCCC2)nc1)c1n[nH]c2ccc(-c3cccnc3)cc12 [Compound 53, 5-(Pyridin-3-yl)-N-(6-(pyrrolidin-1-yl)pyridin-3-yl)-1H-indazole-3-carboxamide] | 7.20
COc1ccc(-c2ccc3[nH]nc(C(=O)Nc4cccnc4)c3c2)cn1 [Compound 54, 5-(6-Methoxypyridin-3-yl)-N-(pyridin-3-yl)-1H-indazole-3-carboxamide] | 6.80
O=C(Nc1cccnc1)c1n[nH]c2ccc(-c3cncc(Cc4ccccc4)c3)cc12 [Compound 55, 5-(5-Benzylpyridin-3-yl)-N-(pyridin-3-yl)-1H-indazole-3-carboxamide] | 7.36
O=C(Nc1cccnc1)c1n[nH]c2ccc(-c3cncc(Oc4ccccc4)c3)cc12 [Compound 56, 5-(5-Phenoxypyridin-3-yl)-N-(pyridin-3-yl)-1H-indazole-3-carboxamide] | 6.80
O=C(Nc1cnccc1C(F)(F)F)c1n[nH]c2ccc(-c3cncc(CN4CCCC4)c3)cc12 [Compound 57, 5-(5-(Pyrrolidin-1-ylmethyl)pyridin-3-yl)-N-(4-(trifluoromethyl)pyridin-3-yl)-1H-indazole-3-carboxamide] | ≤ 5.00
O=C(Nc1cnccc1NC(=O)C1CC1)c1n[nH]c2ccc(-c3cccnc3)cc12 [Compound 58, N-(4-(Cyclopropanecarboxamido)pyridin-3-yl)-5-(pyridin-3-yl)-1H-indazole-3-carboxamide] | 7.15
O=C(NC1CCCCC1)c1cncc(-c2ccc3[nH]nc(C(=O)Nc4cccnc4)c3c2)c1 [Compound 59, 5-(5-(Cyclohexylcarbamoyl)pyridin-3-yl)-N-(pyridin-3-yl)-1H-indazole-3-carboxamide] | 5.51
CN1CCN(Cc2cc(F)cc(-c3ccc4[nH]nc(C(=O)Nc5cnccc5C(F)(F)F)c4c3)c2)CC1 [Compound 60, 5-(3-Fluoro-5-((4-methylpiperazin-1-yl)methyl)phenyl)-N-(4-(trifluoromethyl)pyridin-3-yl)-1H-indazole-3-carboxamide] | ≤ 5.00
CN1CCN(Cc2cncc(-c3ccc4[nH]nc(C(=O)Nc5cccnc5)c4c3)c2)CC1 [Compound 61, 5-(5-((4-Methylpiperazin-1-yl)methyl)pyridin-3-yl)-N-(pyridin-3-yl)-1H-indazole-3-carboxamide] | 6.62
N#Cc1ccc(NC(=O)c2n[nH]c3ccc(-c4cncc(CN5CCCCC5)c4)cc23)cn1 [Compound 62, N-(6-cyanopyridin-3-yl)-5-(5-(piperidin-1-ylmethyl)pyridin-3-yl)-1H-indazole-3-carboxamide] | 7.80
O=C(Nc1ccc(C(F)(F)F)nc1)c1n[nH]c2ccc(-c3cncc(CN4CCCCC4)c3)cc12 [Compound 63, 5-(5-(Piperidin-1-ylmethyl)pyridin-3-yl)-N-(6-(trifluoromethyl)pyridin-3-yl)-1H-indazole-3-carboxamide] | 7.00
O=C(Nc1cccnc1)c1n[nH]c2ccc(-c3cncc(CN4CCOCC4)c3)cc12 [Compound 64, 5-(5-(Morpholinomethyl)pyridin-3-yl)-N-(pyridin-3-yl)-1H-indazole-3-carboxamide] | 8.22
O=C(Nc1ccc(-c2ccccc2)nc1)c1n[nH]c2ccc(-c3cncc(CN4CCCCC4)c3)cc12 [Compound 65, N-(6-Phenylpyridin-3-yl)-5-(5-(piperidin-1-ylmethyl)pyridin-3-yl)-1H-indazole-3-carboxamide] | 7.00
N#Cc1cncc(-c2ccc3[nH]nc(C(=O)Nc4cccnc4)c3c2)c1 [Compound 66, 5-(5-Cyanopyridin-3-yl)-N-(pyridin-3-yl)-1H-indazole-3-carboxamide] | ≤ 5.00
O=C(Nc1cccnc1)c1n[nH]c2ccc(-c3cc(F)cc(CN4CCCCC4)c3)cc12 [Compound 67, 5-(3-Fluoro-5-(piperidin-1-ylmethyl)phenyl)-N-(pyridin-3-yl)-1H-indazole-3-carboxamide] | ≤ 5.00
O=C(Nc1ccc(C(F)(F)F)nc1)c1n[nH]c2ccc(-c3cncc(CN4CCOCC4)c3)cc12 [Compound 68, 5-(5-(Morpholinomethyl)pyridin-3-yl)-N-(6-(trifluoromethyl)pyridin-3-yl)-1H-indazole-3-carboxamide] | 7.32

SMILES | pIC50
O=C(Nc1ccc(N2CCOCC2)nc1)c1n[nH]c2ccc(-c3cncc(CN4CCCCC4)c3)cc12 [Compound 69, N-(6-Morpholinopyridin-3-yl)-5-(5-(piperidin-1-ylmethyl)pyridin-3-yl)-1H-indazole-3-carboxamide] | 7.30
CN1CCN(c2ccc(NC(=O)c3n[nH]c4ccc(-c5cncc(CN6CCCCC6)c5)cc34)cn2)CC1 [Compound 70, N-(6-(4-Methylpiperazin-1-yl)pyridin-3-yl)-5-(5-(piperidin-1-ylmethyl)pyridin-3-yl)-1H-indazole-3-carboxamide] | 7.39
O=C(Nc1ccc(N2CCCC2)nc1)c1n[nH]c2ccc(-c3cncc(CN4CCCCC4)c3)cc12 [Compound 71, 5-(5-(Piperidin-1-ylmethyl)pyridin-3-yl)-N-(6-(pyrrolidin-1-yl)pyridin-3-yl)-1H-indazole-3-carboxamide] | 7.60
O=C(Nc1ccc(-c2cccc(F)c2)nc1)c1n[nH]c2ccc(-c3cncc(CN4CCCCC4)c3)cc12 [Compound 72, N-(6-(3-Fluorophenyl)pyridin-3-yl)-5-(5-(piperidin-1-ylmethyl)pyridin-3-yl)-1H-indazole-3-carboxamide] | 6.67
O=C(Nc1ccc(-c2ccc(F)cc2)nc1)c1n[nH]c2ccc(-c3cncc(CN4CCCCC4)c3)cc12 [Compound 73, N-(6-(4-Fluorophenyl)pyridin-3-yl)-5-(5-(piperidin-1-ylmethyl)pyridin-3-yl)-1H-indazole-3-carboxamide] | 6.49
CN(C)CCN(C)c1ccc(NC(=O)c2n[nH]c3ccc(-c4cncc(CN5CCCCC5)c4)cc23)cn1 [Compound 74, N-(6-((2-(Dimethylamino)ethyl)(methyl)amino)pyridin-3-yl)-5-(5-(piperidin-1-ylmethyl)pyridin-3-yl)-1H-indazole-3-carboxamide] | 7.19
O=C(Nc1ccnnc1)c1n[nH]c2ccc(-c3cncc(CN4CCCCC4)c3)cc12 [Compound 75, 5-(5-(Piperidin-1-ylmethyl)pyridin-3-yl)-N-(pyridazin-4-yl)-1H-indazole-3-carboxamide] | 7.40
O=C(NCc1cccnc1)c1n[nH]c2ccc(-c3cncc(CN4CCCCC4)c3)cc12 [Compound 76, 5-(5-(Piperidin-1-ylmethyl)pyridin-3-yl)-N-(pyridin-3-ylmethyl)-1H-indazole-3-carboxamide] | 6.07
O=C(NC1CCCCC1)c1n[nH]c2ccc(-c3cncc(CN4CCCCC4)c3)cc12 [Compound 77, N-Cyclohexyl-5-(5-(piperidin-1-ylmethyl)pyridin-3-yl)-1H-indazole-3-carboxamide] | 5.58
O=C(Nc1ccc2c(c1)OCO2)c1n[nH]c2ccc(-c3cncc(CN4CCCCC4)c3)cc12 [Compound 78, N-(Benzo[d][1,3]dioxol-5-yl)-5-(5-(piperidin-1-ylmethyl)pyridin-3-yl)-1H-indazole-3-carboxamide] | 6.62
O=C(Nc1ccc2c(c1)OCCO2)c1n[nH]c2ccc(-c3cncc(CN4CCCCC4)c3)cc12 [Compound 79, N-(2,3-Dihydrobenzo[b][1,4]dioxin-6-yl)-5-(5-(piperidin-1-ylmethyl)pyridin-3-yl)-1H-indazole-3-carboxamide] | 6.91
O=C(Nc1cncc(Cc2ccccc2)c1)c1n[nH]c2ccc(-c3cncc(CN4CCCCC4)c3)cc12 [Compound 80, N-(5-Benzylpyridin-3-yl)-5-(5-(piperidin-1-ylmethyl)pyridin-3-yl)-1H-indazole-3-carboxamide] | 6.80
O=C(Nc1cnccn1)c1n[nH]c2ccc(-c3cncc(CN4CCCCC4)c3)cc12 [Compound 81, 5-(5-(Piperidin-1-ylmethyl)pyridin-3-yl)-N-(pyrazin-2-yl)-1H-indazole-3-carboxamide] | 6.85 to 7.11
O=C(Nc1ccccc1)c1n[nH]c2ccc(-c3cncc(CN4CCCCC4)c3)cc12 [Compound 82, N-Phenyl-5-(5-(piperidin-1-ylmethyl)pyridin-3-yl)-1H-indazole-3-carboxamide] | 6.73 to 6.84
CN1CCN(C(=O)c2n[nH]c3ccc(-c4cncc(CN5CCCCC5)c4)cc23)CC1 [Compound 83, (4-Methylpiperazin-1-yl)(5-(5-(piperidin-1-ylmethyl)pyridin-3-yl)-1H-indazol-3-yl)methanone] | 5.47 to 5.60
C[C@@H]1CCC[C@H](C)N1Cc1cncc(-c2ccc3[nH]nc(C(=O)Nc4cccnc4)c3c2)c1 [Compound 84, 5-(5-(((2R,6S)-2,6-Dimethylpiperidin-1-yl)methyl)pyridin-3-yl)-N-(pyridin-3-yl)-1H-indazole-3-carboxamide] | 6.05 to 6.09
CN(C)Cc1cncc(NC(=O)c2n[nH]c3ccc(-c4cncc(CN5CCCCC5)c4)cc23)c1 [Compound 86, N-(5-((Dimethylamino)methyl)pyridin-3-yl)-5-(5-(piperidin-1-ylmethyl)pyridin-3-yl)-1H-indazole-3-carboxamide] | 7.18
